Data reported in patent publication US9714243B2, “4-pyridinonetriazine derivatives as HIV integrase inhibitors” (Merck Sharp & Dohme Corp., priority 2012, dated 2017).
Like-named read-outs stand apart in the source and are kept apart here.

Test system: HIV-1 (NL4-3 strain)
Assay: Assay for inhibition of HIV replication (ViKinG; infected MT4-GFP cells)
Format: cell-based
Procedure: Assay for inhibition of HIV replication
MT4-GFP cells (250,000 cells/ml) were bulk-infected with HIV-1 (NL4-3 strain) at low multiplicity of infection (MOI) in RPMI+10% FBS for 24 hours. […] Test compounds were serial-diluted in DMSO on ECHO. The infected MT4-GFP cells were added to a 384-well poly-D-lysine coated black plate with clear bottom in which the diluted test compounds were placed. The cells were seeded at 8,000 cells per well and the final DMSO concentration was 0.4%. The infected cells (Green GFP cells) were quantified at both 24 and 48 hours post incubation using Acumen eX3. Viral reproductive ratio (R0) was determined using the number of infected cells at 48 hours divided by the number of infected cells at 24 hours. Percent viral growth inhibition was calculated by [1−(R−Rtripledrug)/(RDMSO−Rtripledrug)]*100. Compound potency IP or IC50 was determined by a 4-parameter dose response curve analysis.

[1] = Human immunodeficiency virus 1, NL43, MT4-GFP cells infected with HIV-1 NL4-3, 0% normal human serum (NHS), read-out: ViKinG IP (nM) with 0% NHS
[2] = Human immunodeficiency virus 1, NL43, MT4-GFP cells infected with HIV-1 NL4-3, 10% normal human serum (NHS), read-out: ViKinG IP (nM) with 10% NHS
[3] = Human immunodeficiency virus 1, NL43, MT4-GFP cells infected with HIV-1 NL4-3, 100% normal human serum (NHS), read-out: ViKinG IP (nM) with 100% NHS
[4] = MT4-GFP cells infected with HIV-1 NL4-3, 0% normal human serum (NHS), read-out: ViKinG IP (nM) with 0% NHS
[5] = MT4-GFP cells infected with HIV-1 NL4-3, 100% normal human serum (NHS), read-out: ViKinG IP (nM) with 100% NHS
[6] = MT4-GFP cells infected with HIV-1 NL4-3, 10% normal human serum (NHS), read-out: ViKinG IP (nM) with 10% NHS

Compound | IC50 [1] | IC50 [2] | IC50 [3] | further results
COC(=O)[C@@]12C[C@@H]1CCC21N(C)C(=O)c2c(O)c(=O)c(-c3nnc(Cc4ccc(F)cc4F)s3)cn2N1C (mixture of isomers) [Compound 199] | 5.42 nM | 13.9 nM | 202 nM | 
CN1C(=O)c2c(O)c(=O)c(-c3nnc(Cc4ccc(F)cc4F)s3)cn2N(C)C12CC[C@@H]1C[C@@]12CO (mixture of isomers) [Compound 200] |  |  |  | IC50 [4]: 2.04 nM; IC50 [5]: 66.7 nM
CN1n2cc(-c3nnc(Cc4ccc(F)cc4F)s3)c(=O)c(O)c2C(=O)NC12CC[C@H]1C[C@H]12 (mixture of isomers) [Compound 201] | 3.82 nM |  | 575 nM | 
COCCN1C(=O)c2c(O)c(=O)c(-c3nnc(Cc4ccc(F)cc4F)s3)cn2N(C)C12CC[C@H]1C[C@H]12 (mixture of isomers) [Compound 202] | 8.36 nM | 1180 nM |  | 
COC(=O)[C@@]12C[C@@H]1CCC21NC(=O)c2c(O)c(=O)c(-c3nnc(Cc4ccc(F)cc4F)s3)cn2N1C (mixture of isomers) [Compound 204] | 2.81 nM | 9.04 nM | 146 nM | 
CCN1C(=O)c2c(O)c(=O)c(-c3nnc(Cc4ccc(F)cc4F)s3)cn2N(C)C1C(C)(C)C (racemic) [Compound 16] |  | 57 nM | 1030 nM | 
CCN1C(=O)c2c(O)c(=O)c(-c3nnc(Cc4ccc(F)cc4F)s3)cn2N(C)C1C1(C)CC1 (racemic) [Compound 17] |  | 138 nM | 4070 nM | 
CCN1C(=O)c2c(O)c(=O)c(-c3nnc(Cc4ccc(F)cc4F)s3)cn2N(C)C1c1cccc(OC)n1 (racemic) [Compound 18] |  | 38.7 nM | 1190 nM | 
CCN1C(=O)c2c(O)c(=O)c(-c3nnc(Cc4ccc(F)cc4F)s3)cn2N(C)C1CC(C)=O (racemic) [Compound 40] | 2.53 nM | 374 nM |  | 
CCN1C(=O)c2c(O)c(=O)c(-c3nnc(Cc4ccc(F)cc4F)s3)cn2N(C)C12CCCc1sccc12 (racemic) [Compound 42] | 92.5 nM | 321 nM |  | 
CCN1C(=O)c2c(O)c(=O)c(-c3nnc(Cc4ccc(F)cc4F)s3)cn2N(C)C12CCCC(=O)C2 (racemic) [Compound 43] | 40.7 nM | 275 nM |  | 
CCN1C(=O)c2c(O)c(=O)c(-c3nnc(Cc4ccc(F)cc4F)s3)cn2N(C)C12CCCCC(=O)C2 (racemic) [Compound 44] | 4.36 nM |  | 240 nM | 
CCN1C(=O)c2c(O)c(=O)c(-c3nnc(Cc4ccc(F)cc4F)s3)cn2N(C)C1c1ccc(F)c(OC)c1 (racemic) [Compound 48] | 19.6 nM |  | 416 nM | 
CC1=CCC2(CC1)N(C)C(=O)c1c(O)c(=O)c(-c3nnc(Cc4ccc(F)cc4F)s3)cn1N2C (racemic) [Compound 71] | 16.1 nM | 49.5 nM |  | 
CN1C(=O)c2c(O)c(=O)c(-c3nnc(Cc4ccc(F)cc4F)s3)cn2N(C)C12CCCc1occc12 (racemic) [Compound 78] | 10.7 nM | 93 nM |  | 
CN1C2CCCN2C(=O)c2c(O)c(=O)c(-c3nnc(Cc4ccc(F)cc4F)s3)cn21 (racemic) [Compound 155] |  | 48.7 nM | 304 nM | 
CN1C2CCCCCN2C(=O)c2c(O)c(=O)c(-c3nnc(Cc4ccc(F)cc4F)s3)cn21 (racemic) [Compound 159] |  | 121 nM |  | 
CN1C2COCCN2C(=O)c2c(O)c(=O)c(-c3nnc(Cc4ccc(F)cc4F)s3)cn21 (racemic) [Compound 160] |  | 22.6 nM | 298 nM | 
CN1n2cc(-c3nnc(Cc4ccc(F)cc4F)s3)c(=O)c(O)c2C(=O)N2CCCC21CO (racemic) [Compound 163] | 8.22 nM |  | 499 nM | 
CCN1C(=O)c2c(O)c(=O)c(-c3nnc(Cc4ccc(F)cc4)s3)cn2N(C)C1C1CC1 (racemic) [Compound 217] |  | 66 nM | 1020 nM | 
CCN1C(=O)c2c(O)c(=O)c(-c3nnc(Cc4ccc(F)cc4)s3)cn2N(C)C1C1CCOCC1 (racemic) [Compound 219] |  | 26.9 nM |  | 
CCN1C(=O)c2c(O)c(=O)c(-c3nnc(Cc4ccc(F)cc4)s3)cn2N(C)C1(C)COC (racemic) [Compound 223] |  |  | 369 nM | 
CCN1C(=O)c2c(O)c(=O)c(-c3nnc(Cc4ccc(F)cc4)s3)cn2N(C)C1(C)C [Compound 5] |  | 31 nM | 936 nM | 
CCN1C(=O)c2c(O)c(=O)c(-c3nnc(Cc4ccc(F)cc4)s3)cn2N(C)C1c1ccn[nH]1 (stereo not drawn) [Compound 6] |  | 30.8 nM | 357 nM | 
CCO[C@H]1CC[C@@]2(CC1)N(CC)C(=O)c1c(O)c(=O)c(-c3nnc(Cc4ccc(F)cc4F)s3)cn1N2C [Compound 9] | 5.06 nM |  | 141 nM | 

Compound | IC50 [1] | IC50 [2] | IC50 [3] | further results
CCN1C(=O)c2c(O)c(=O)c(-c3nnc(Cc4ccc(F)cc4)s3)cn2N(C)C12CC(O)C2 (stereo not drawn) [Compound 11] |  | 231 nM | 4200 nM | 
CN1C(=O)c2c(O)c(=O)c(-c3nnc(Cc4ccc(F)cc4)s3)cn2N(C)C12CCC(O)CC2 (stereo not drawn) [Compound 13] |  |  |  | IC50 [4]: 23.8 nM; IC50 [6]: 86.9 nM; IC50 [5]: 862 nM
CN1C(=O)c2c(O)c(=O)c(-c3nnc(Cc4ccc(F)cc4)s3)cn2N(C)C12CCC(O)CC2 (stereo not drawn) [Compound 14] |  |  |  | IC50 [4]: 5.37 nM; IC50 [6]: 18.8 nM; IC50 [5]: 198 nM
CCN1C(=O)c2c(O)c(=O)c(-c3nnc(Cc4ccc(F)cc4F)s3)cn2N(C)C1(C)C [Compound 15] | 3.49 nM | 57.9 nM | 971 nM | 
CCN1C(=O)c2c(O)c(=O)c(-c3nnc(Cc4ccc(F)cc4F)s3)cn2N(C)C12CCC(C(=O)OC)C2 (stereo not drawn) [Compound 19] |  | 22.8 nM | 314 nM | 
CCN1C(=O)c2c(O)c(=O)c(-c3nnc(Cc4ccc(F)cc4F)s3)cn2N(C)C12CCC(CC(=O)OC)C2 (stereo not drawn) [Compound 20] |  | 28.7 nM | 218 nM | 
CCN1C(=O)c2c(O)c(=O)c(-c3nnc(Cc4ccc(F)cc4F)s3)cn2N(C)C12CCC(CC(=O)OC)CC2 (stereo not drawn) [Compound 21] |  | 31.8 nM |  | 
CCN1C(=O)c2c(O)c(=O)c(-c3nnc(Cc4ccc(F)cc4F)s3)cn2N(C)C12CCC1(CCC(=O)N1)CC2 (stereo not drawn) [Compound 22] |  | 292 nM |  | 
CCN1C(=O)c2c(O)c(=O)c(-c3nnc(Cc4ccc(F)cc4F)s3)cn2N(C)C12CCC1(CCC(=O)N1)CC2 (stereo not drawn) [Compound 23] |  |  |  | IC50 [6]: 466 nM
CCN1C(=O)c2c(O)c(=O)c(-c3nnc(Cc4ccc(F)cc4F)s3)cn2N(C)C12CCC(NS(C)(=O)=O)CC2 (stereo not drawn) [Compound 24] |  | 185 nM | 1040 nM | 
CCOP(=O)(OCC)C1CCCC2(C1)N(CC)C(=O)c1c(O)c(=O)c(-c3nnc(Cc4ccc(F)cc4F)s3)cn1N2C (stereo not drawn) [Compound 25] |  | 40.5 nM |  | 
CCN1C(=O)c2c(O)c(=O)c(-c3nnc(Cc4ccc(F)cc4F)s3)cn2N(C)C12CCC(OC)CC2 (stereo not drawn) [Compound 26] |  | 9.22 nM | 115 nM | IC50 [4]: 2.83 nM
CCN1C(=O)c2c(O)c(=O)c(-c3nnc(Cc4ccc(F)cc4F)s3)cn2N(C)C12CCC(OC)CC2 (stereo not drawn) [Compound 27] |  |  |  | IC50 [4]: 9.24 nM; IC50 [6]: 11.5 nM; IC50 [5]: 191 nM
CCN1C(=O)c2c(O)c(=O)c(-c3nnc(Cc4ccc(F)cc4F)s3)cn2N(C)C12CC[C@H](C(=O)OC)[C@H](C)C2 (stereo partly drawn) [Compound 30] |  |  |  | IC50 [6]: 13.1 nM
CCN1C(=O)c2c(O)c(=O)c(-c3nnc(Cc4ccc(F)cc4F)s3)cn2N(C)C12CC[C@H](C(=O)OC)[C@H](C)C2 (stereo partly drawn) [Compound 31] |  |  |  | IC50 [6]: 32.2 nM
CCN1C(=O)c2c(O)c(=O)c(-c3nnc(Cc4ccc(F)cc4F)s3)cn2N(C)C12CC[C@@H](C(=O)OC)[C@H](C)C2 (stereo partly drawn) [Compound 32] |  | 21.1 nM |  | 
CCN1C(=O)c2c(O)c(=O)c(-c3nnc(Cc4ccc(F)cc4F)s3)cn2N(C)C12CC[C@@H](C(=O)OC)[C@H](C)C2 (stereo partly drawn) [Compound 33] |  |  |  | IC50 [6]: 29 nM
CCN1C(=O)c2c(O)c(=O)c(-c3nnc(Cc4ccc(F)cc4F)s3)cn2N(C)C12CCC(c1n[nH]c(=O)o1)CC2 (stereo not drawn) [Compound 34] |  | 23.6 nM | 180 nM | 
CCOC(=O)C1CC2(CC1(C)C)N(CC)C(=O)c1c(O)c(=O)c(-c3nnc(Cc4ccc(F)cc4F)s3)cn1N2C (stereo not drawn) [Compound 35] |  | 100 nM |  | 
CCN1C(=O)c2c(O)c(=O)c(-c3nnc(Cc4ccc(F)cc4F)s3)cn2N(C)C12C[C@H]1CC(CC(=O)OC)C[C@H]1C2 (stereo partly drawn) [Compound 36] |  | 52.6 nM |  | 
CCOP(=O)(OCC)C1CCC2(C1)N(CC)C(=O)c1c(O)c(=O)c(-c3nnc(Cc4ccc(F)cc4F)s3)cn1N2C (stereo not drawn) [Compound 37] |  |  | 186 nM | IC50 [6]: 18.2 nM
CCOP(=O)(OCC)C1CCC2(C1)N(CC)C(=O)c1c(O)c(=O)c(-c3nnc(Cc4ccc(F)cc4F)s3)cn1N2C (stereo not drawn) [Compound 38] |  |  |  | IC50 [6]: 95.4 nM
CCN1C(=O)c2c(O)c(=O)c(-c3nnc(Cc4ccc(F)cc4F)s3)cn2N(C)C12CC[C@@H]1C[C@@H]12 (stereo partly drawn) [Compound 39] | 0.213 nM | 77.7 nM |  | 
CCN1C(=O)c2c(O)c(=O)c(-c3nnc(Cc4ccc(F)cc4F)s3)cn2N(C)C1CC(C)O (stereo not drawn) [Compound 41] | 3.15 nM | 73.2 nM |  | 
CCN1C(=O)c2c(O)c(=O)c(-c3nnc(Cc4ccc(F)cc4F)s3)cn2N(C)C12CCCCC(O)C2 (stereo not drawn) [Compound 45] | 4.07 nM |  | 122 nM | 
